A short description of the data set: Drug elution in PBS over 0-7 days (HPLC of supernatant). It counts as physicochemical. The settings on record: 1.2 ml PBS, 37 degrees centigrade, 250 rpm. As to the method:
The microspheres of Example 7 and the elongated solid composition of Example 8 were tested for drug release. Samples of the Everolimus containing microspheres, averaging 4.0 mg, were placed in Eppendorf tubes with 1.2 ml of phosphate buffered saline (PBS) and suspended with agitation. Samples of the elongated solid composition containing Everolimus of 12 mm length, averaging 0.51 mg were placed in Eppendorf tubes with 1.2 ml of phosphate buffered saline (PBS) and suspended with agitation. For comparison, samples of the drug used to produce the microspheres, averaging 4.1 mg, were also placed in Eppendorf tubes with 1.2 ml of PBS and suspended with agitation. The tubes were incubated at 37 degrees centigrade with mixing at 250 rpm. At time intervals of 0, 1, 2, 4 and 7 days a tube containing sample was centrifuged and the supernatant removed for drug analysis. For each time point, 10 microliters of supernatant was placed into 75:25 acetonitrile and water solvent to solubilize the drug and the resultant drug content was analyzed by HPLC. The HPLC method used a C18 reverse phase column and UV detection and was calibrated to a standard curve of drug. […] In contrast, the Everolimus containing microspheres released drug at a slower rate, with 0.06% of the drug released at 7 days. Similar to the microspheres, the elongated solid composition containing Everolimus released drug at a slow rate, with 0.04% of the drug released at 7 days.
The microspheres of Example 11 and the elongated solid composition of Example 12 were tested for drug release. […] For each time point, 10 microliters of supernatant was placed into 75:25 acetonitrile and water solvent to solubilize the drug and the resultant drug content was analyzed by HPLC. […]
The elongated solid composition of Example 15 was tested for drug release. […] For each time point, 10 microliters of supernatant was placed into 50:50 acetonitrile and methanol solvent to solubilize the drug and the resultant drug content was analyzed by HPLC. […]

The record followed here is US20180250224A1, “Ophthalmic Drug Compositions” (Oxular Limited, priority 2014, published 2018).

Consider `CO[C@H]1C[C@@H]2CC[C@@H](C)[C@@](O)(O2)C(=O)C(=O)N2CCCC[C@H]2C(=O)O[C@H]([C@H](C)C[C@@H]2CC[C@@H](OCCO)[C@H](OC)C2)CC(=O)[C@H](C)/C=C(\C)[C@@H](O)[C@@H](OC)C(=O)[C@H](C)C[C@H](C)/C=C/C=C/C=C/1C` [Everolimus], for which the “drug released at 7 days” value (7 days) stood at 0.45%.

As for `CC1(C)O[C@@H]2C[C@H]3[C@@H]4C[C@H](F)C5=CC(=O)C=C[C@]5(C)[C@@]4(F)[C@@H](O)C[C@]3(C)[C@]2(C(=O)CO)O1` [fluocinolone, fluocinolone acetonide], the “drug released initially at 0 days (initial burst release)” value (0 days) amounted to 5.3%. Moreover, the “drug released, average at subsequent time points” value (1, 2, 4 and 7 days) is listed as 0.9%.
